Experiments:
[1] = treatment of rhinosinusitis patients by nasal catheter rinsing; format: in vivo, human
Text: Treatments with traditional fungicidal agents have on the contrary previously led to no success.
The importance of the agent lies, among other things, in the fact that, in the case of the mucus tissue polyps occurring in rhinosinusitis, regression could be observed so that the previously successful standard therapy, namely operative removal, can be avoided by the use of the agent according to the invention.
A person suffers from chronic rhinosinusitis with clear swelling of the mucus membranes in both maxillary sinuses with retention of secretion on the left, in ethmoid bone cells, sphenoidal sinus, and in the left frontal sinus. Labored nasal respiration. For 2 1/2 months increasing headaches at the back of the head, no improvement on antibiotic therapy.
The treatment with 1% NCT-Na took place over a total of 4 weeks, 3 times weekly, and included 12 treatments in all. Each time a 10-ml NCT-Na solution was applied by means of a nasal catheter (YAMIK) over a period of time of 12 minutes. Thereafter the rinsing solution was suctioned off.
patient suffered from chronic rhinosinusitis for ca. 1 year with swelling of the mucus membranes and increased secretion in the nasal cavity and all its adjacent cavities, strong polyposis and loss of the sense of smell.

[2] = treatment of patients with otitis externa with saturated strips; format: in vivo, human; details: changed daily
Method: A group of 10 patients who suffered from otitis externa with affliction of the auditory canal were treated. For treatment, 12 cm long strips (tampons by Rauscher) were placed into the external auditory canal. The test group (5 persons) was treated with strips which were saturated with 1-ml 1% NCT-Na, the control group (5 persons) with strips which were saturated with 1-ml otosporin (content per ml: 10,000 IU polymyxin B sulfate, 3.5 mg neomycin as neomycin sulfate, 10 mg hydrocortisone).
The treatment was done over 5 days. The strips were changed daily.

[3] = test system: aspergillus, penicillum, fusarium, and candida in nasal mucus; test: kill-off time in vitro of fungi in nasal mucus; format: cell-based; details: 1% NCT-Na added to nasal mucus (diluted 1:10) of rhinosinusitis
Method: In the case of rhinosinusitis various species of fungus were found in the nasal mucus, e.g., aspergillus, penicillum, fusarium, and candida. If (diluted 1:10) 1% NCT-Na is added to this nasal mucus, then the kill-off time in vitro is less than 30 minutes.

[4] = tolerability in vivo at various application sites; details: eye, middle ear, outer ear, skin ulcers, oral cavity, bladder
[5] = treatment of patients with ulcus cruris with saturated swabs; format: in vivo, human; details: Example 4, 1% NCT-Na versus 1% chloramine T control group
Method: A group of 25 patients who suffered from ulcus cruris were treated. The treatment was done with swabs which were saturated with an aqueous solution of 1% NCT-Na (test group, 14 patients) or 1% chloramine T (control group, 11 patients) and applied directly to the ulcers and left there. The treatment was done over 5-14 days. The swabs were changed twice daily.

With O=S(=O)(O)CCNCl [NCT-Na, N-chlorotaurine] the formation of secretion ([1]; Example 1, 1% NCT-Na, after 7 treatments) was “strong decline”, the nasal respiration ([1]; Example 1, 1% NCT-Na, after 9 treatments) was “clearly improved” and the pains ([1]; Example 1, person, 1% NCT-Na 10 ml, 3 times weekly, after the second application) was “complete remission of the pains”. The polyposis nasi ([1]; Example 2, 1% NCT-Na, at the end of the treatments (12 treatments, 4 weeks)) was “unambiguous regression”, the sense of smell ([1]; Example 2, patient, 1% NCT-Na 10 ml, 3 times weekly, after the sixth application) was “substantial restoration” and the “symptoms of rhinosinusitis (pains, head pressure, loss of sense of smell, increased secretion, polyp formation)” value ([1]; trials with rhinosinusitis patients, treatment of internal nasal surfaces with NCT-Na solution) was “improved substantially”. For the same compound, the tolerability ([2]; Example 3, strips saturated with 1 ml 1% NCT-Na in external auditory canal, 5 days) was “well tolerated”, the “period until healing, on average” value ([2]; Example 3, strips saturated with 1 ml test solution) was 3 days and the “kill-off time in vitro” value [3] was “less than 30 minutes”. For the same compound, the tolerability in vivo [4] was “tolerated outstandingly” and the “pains after application of the solution” value [5] was “significantly less pains”.

— US20090182055A1, “FUNGICIDAL AGENT CONTAINING N-CHLOROTAURINE AND USE THEREOF” (priority 2000, published 2009)
